Data on 25 compounds can be found in patent US20190175633A1, “REACTIVE, LIPOPHILIC NUCLEOSIDE BUILDING BLOCKS FOR THE SYNTHESIS OF HYDROPHOBIC NUCLEIC ACIDS” (Ionovation GmbH, priority 2017, published 2019).

Entries after “also recorded” stand apart in the source; their conditions may differ.

One data set has as its system IGR-OV1 cells. As to the kind of experiment: Oncological test against IGR-OV1 cells. The class given is cell-based, human. Conditions: IGR-OV1, FIGS. 12 and 13. From the text:
(§1) FIGS. 10 to 17 show the activity of compounds ESP_2.2, ESP_2.5 and ESP_31 according to the invention as well as the comparative examples ESP_2 and ESP_3 (Table 4) in relation to the concentration employed against various different cancer cells. […] The x-axis depicts the molar concentration of the respective compound on a logarithmical scale.
The epithelial morphology of IGR-OV1 cells was retained during in vitro and in vivo passages. Two cytogenetic markers characterize IGR-OV1 cells: a paracentric inversion of chromosome 3, and a translocation between chromosomes 2 and 5. These characteristics make the IGR-OV1 cell line a suitable experimental model for the treatment of human ovarian carcinomas and for biological studies of human solid tumors.

Data set [1] deals with human colorectal adenocarcinoma cell line HCT15. It counts as cell-based. The conditions noted are these: for activity on cell growth (growth inhibition / cytotoxic effect): HCT-15, FIGS. 14 and 15. From the text: The x-axis depicts the molar concentration of the respective compound on a logarithmical scale.
The subject of data set [2] is primary clear renal cell adenocarcinoma (cell line 786-0). The data set can be described thus: Oncological test against 786-0 cells. The conditions noted are these: 786-0, FIGS. 16 and 17. The class given is cell-based.
Excerpt: as §1
This cell line is derived from a primary clear renal cell adenocarcinoma. The cells display both microvilli and desmosomes, and can be grown in soft agar. The cells produce a PTH like peptides that is identical to peptides produced by breast and lung tumors. The peptide has an N terminal sequence similar to PTH, has PTH like activity, and has a molecular weight of 6000 daltons.

Another data set concerns various cancer cells. The data set can be described thus: Oncological tests, summary over FIGS. 10 to 17. The class given is cell-based. The conditions noted are these: ovarian, colon and kidney cancer cells.
Excerpt: as §1

By melting point is commonly meant the temperature of the solid-liquid transition.

`CCCCCCCCCCCCCCCCCCN(CC#CCCl)CCCCCCCCCCCCCCCCCC` [Compound 51, 4-Chloro-N,N-dioctadecylbut-2-yn-1-amine]: the melting point was 51 to 52 °C.

`CCCCCCCCCCCCCCCCCCNC(=O)CCCO` [Compound 62, 4-Hydroxy-N-octadecylbutanamide] came in with a melting point of 86 to 87 °C.

`CCCCCCCCCCCCCCCCCCNCCCCO` [Compound 60, 4-(Octadecylamino)butan-1-ol] had a melting point of 68 to 69 °C.

Compound `CCCCCCCCCCCCCCCCCCN(CCCO)CCCCCCCCCCCCCCCCCC` [Compound 42, 3-(Dioctadecylamino)propanol] gave a melting point of 48 to 49 °C.

Take `CCCCCCCCCCCCCCCCCCN(CC#CCN(CCCCCCCCCCCCCCCCCC)CCCCCCCCCCCCCCCCCC)CCCCCCCCCCCCCCCCCC` [Compound 52, N,N,N′,N′-Tetraoctadecylbut-2-yne-1,4-diamine]: the melting point was in the range of 55 to 56 °C.

`CCCCCCCCCCCCCC1(CCCCCCCCCCCCC)O[C@@H]2[C@H](O1)[C@@H](CO)O[C@H]2n1ccc(=O)[nH]c1=O` [Compound 25c, 1-((3aR,4R,6R,6aR)-6-(hydroxymethyl)-2,2-ditridecyltetrahydrofuro[3,4-d][1,3]dioxol-4-yl)pyrimidin-2,4(1H,3H)-dione] displayed a melting point of 90.1 °C.

As for `CCOC(=O)CC[C@@]1(C)O[C@@H]2[C@H](O1)[C@@H](COC(c1ccccc1)(c1ccccc1)c1ccc(OC)cc1)O[C@H]2n1ncc(=O)[nH]c1=O` [ESP_2.2, Ethyl-3-((3aR,4R,6R,6aR)-4-(3,5-dioxo-4,5-dihydro-1,2,4-triazin-2(3H)-yl)-6-(((4-methoxyphenyl)diphenylmethoxy)methyl)-2-methyltetrahydrofuro[3,4-d][1,3]dioxol-2-yl)propanoate], the “activity on cell growth (growth inhibition / cytotoxic effect)” value in the data set on IGR-OV1 cells was “activity of the compound could be increased”; in data set [1], “increased activity”.

`CCCCCCCCCCCCCCCC1(CCCCCCCCCCCCCCC)OC2C(CO)OC(n3ccc(=O)[nH]c3=O)C2O1` (stereo not drawn) [Compound 25d, 1-(6-Hydroxymethyl-2,2-dipentadecyl-tetrahydro-furo[3,4-d][1,3]dioxol-4-yl)-1H-pyrimidin-2,4-dione] came in with a melting point of 93 °C.

In turn, `CCCCCCCCCC1(CCCCCCCCC)O[C@@H]2[C@H](O1)[C@@H](CO)O[C@H]2n1ccc(=O)[nH]c1=O` [Compound 25b, 1-((3aR,4R,6R,6aR)-6-(hydroxymethyl)-2,2-dinonyltetrahydrofuro[3,4-d][1,3]dioxol-4-yl)pyrimidin-2,4(1H,3H)-dione] gave a melting point of 69.8 °C.

`COc1ccc(C(OC[C@H]2O[C@@H](n3cnc4c(=O)n(C/C=C(\C)CCC=C(C)C)cnc43)C[C@@H]2O)(c2ccccc2)c2ccc(OC)cc2)cc1` [Compound 4a, 9-((2R,4S,5R)-5-((Bis(4-methoxyphenyl)(phenyl)methoxy)-methyl)-4-hydroxytetrahydrofuran-2-yl)-1-((E)-3,7-di-methylocta-2,6-dienyl)-1H-purin-6(9H)-one] yielded a melting point of 74 °C.

Consider `CCCCCCCCCCCCCCCCCCNC(=O)CCC(=O)O` [Compound 58, 4-(Octadecylamino)-4-oxobutanoic acid], for which the melting point was 124 to 125 °C.

`C#CCN(CC#C)CCCCCCCCCCCCCCCCCC` [Compound 57, N-Octadecyl-N,N-diprop-2-ynylamine] registered a melting point of 43 to 44 °C.

As to `CCCCCCCCCCCCCCCCCCN(CCCCCCCCCCCCCCCCCC)C(=O)CCC(=O)OC` [Compound 47, Methyl 4-(dioctadecylamino)-4-oxobutanoate], the melting point was in the range of 29 to 30 °C.

For `CCCCCCCCCCCCCCCCCCN(CCCCCCCCCCCCCCCCCC)CC(=O)O` [Compound 37, N,N-dioctadecylglycine], the melting point was in the range of 102 to 103 °C.

Compound `C#CCN(CCCCO)CCCCCCCCCCCCCCCCCC` [Compound 63, 4-[Octadecyl(prop-2-ynyl)amino]butan-1-ol] had a melting point of 33 to 34 °C.

For `CCCCCCCCCC1(CCCCCCCCC)OC2[C@@H](CO)O[C@@H](n3ccc(=O)[nH]c3=O)[C@H]2O1` (stereo partly drawn) [ESP_31], the “activity on cell growth (growth inhibition / cytotoxic effect)” value in data set [2] is recorded as “cytotoxic effect”; in the data set on IGR-OV1 cells it was “vast improvement with respect to the cytotoxic activity”; in data set [1] it was “high cytotoxic activity”.

Compound `CCCCCCCCCCCCCCCCCCN(CCCCO)CCCCCCCCCCCCCCCCCC` [Compound 48a, 4-(Dioctadecylamino)butan-1-ol] registered a melting point of 57 to 58 °C.

In turn, `CCCCCCCCCCCCCCCCCCN1CCCC1` gave a melting point of 25 to 27 °C.

The compound `CCCCCCCCCCCCCCCCCCN(CCBr)CCCCCCCCCCCCCCCCCC` returned a melting point of 69 to 71 °C.

As to `CCCCCCCCCCCCCCCCCCN(CCCCCCCCCCCCCCCCCC)C(C)C(=O)OC` (stereo not drawn) [Compound 41, Methyl N,N-dioctadecyl-2-aminopropionate], the melting point is 44 to 45 °C.

In the case of `COc1ccc(C(OC[C@H]2O[C@@H](n3cnc4c(=O)n(C/C=C(\C)CC/C=C(\C)CCC=C(C)C)cnc43)C[C@@H]2O)(c2ccccc2)c2ccc(OC)cc2)cc1` [Compound 4b, 9-((2R,4S,5R)-5-((Bis(4-methoxyphenyl)(phenyl)methoxy)-methyl)-4-hydroxytetrahydrofuran-2-yl)-1-((2E,6E)-3,7,11-trimethyldodeca-2,6,10-trienyl)-1H-purin-6(9H)-on], the melting point is 68 °C.

Consider `O=c1ccn([C@@H]2O[C@H](CO)[C@@H](O)[C@H]2O)c(=O)[nH]1` [ESP_3, uridine, reference compound], for which the results for the “activity on cell growth (growth inhibition / cytotoxic effect)” value (in data set [2]; in the data set with IGR-OV1 cells) were “does not show any activity at all; also recorded: did not show any activity at all” and “did not even cause a growth inhibition”, respectively.

For `CCOC(=O)CCC1(C)O[C@@H]2[C@H](O1)[C@@H](CO)O[C@H]2n1ncc(=O)n(C/C=C(\C)CC/C=C(\C)CCC=C(C)C)c1=O` (stereo partly drawn) [ESP_2.5, Ethyl-3-((3aR,4R,6R,6aR)-4-(3,5-dioxo-4-((2E,6E)-3,7,11-trimethyldodeca-2,6,10-trien-1-yl)-4,5-dihydro-1,2,4-triazin-2 (3H)-yl)-6-(hydroxymethyl)-2-methyltetrahydrofuro[3,4-d][1,3]dioxol-2-yl)propanoate], the “activity / cytotoxicity against various cancer cells” value with various cancer cells was “particular high cytotoxicity”. Also, the “activity on cell growth (growth inhibition / cytotoxic effect)” value in data set [2] is listed as “high cytotoxic effect”; in the data set with IGR-OV1 cells it was “improved inhibition effect”; in data set [1], “increased activity”. Moreover, the “death of the cells (cytotoxic effect)” value in data set [1] (HCT-15, employed in high dosage) is on record as “over 50%”.

`CCCCCCCCCCCCCCCCCCN(CCCCCCCCCCCCCCCCCC)C(=O)CCC(=O)O` [Compound 46, 4-(Dioctadecylamino)-4-oxobutanoic acid] showed a melting point of 68 to 69 °C.

Consider `CCCCCCCCCCCCCCCCCCNC(=O)CCC(=O)OC` [Compound 59, Methyl 4-(octadecylamino)-4-oxobutanoate], for which the melting point was 86 to 87 °C.
